Test results reported in publication PMC12396409, “Screening and hit evaluation of a microbial metabolite library against the pathogenic Plasmodium falciparum and Toxoplasma gondii parasites” (International Journal for Parasitology: Drugs and Drug …, 2025).
Like-named read-outs stand apart in the source and are kept apart here. Where a SMILES comes first, the peptide text is derived from it. Bridges are numbered along the chain shown (N, C = ends). [ ]: non-standard residue; d: D form. The star is where a group is joined. Ileψ(thiazoline)Cys = CC[C@H](C)[C@H](N)C1=N[C@H](C(=O)*)CS1; dOrn = NCCC[C@@H](N)C(=O)O

What was measured:
[1] = system: P. falciparum 3D7 parasites; assay: P. falciparum growth inhibition assay, 2-cycle (120 h treatment), delayed-death screen and dose-response; assay type: cell-based, Plasmodium falciparum; conditions: % growth; for activity at 2 µg/mL: Plasmodium falciparum, 120 h
[2] = system: P. falciparum 3D7 parasites; assay: P. falciparum growth inhibition assay, 1-cycle (72 h treatment), SYBR DNA staining (library screen at 2 μg/mL and dose-response); assay type: cell-based, Plasmodium falciparum; conditions: for activity at 2 µg/mL: Plasmodium falciparum, 72 h
[3] = system: T. gondii RH strain (RH-Tub-eYFP) tachyzoites; assay: microbe, parasite or virus in culture; assay type: cell-based, Toxoplasma gondii; conditions: for percent parasite growth at 2 µg/mL: Toxoplasma gondii; for Mean / Replicate 1 / Replicate 2: 2 μg/mL; for Mean: mean of both replicates, growth (% of control); for Replicate 1 / Replicate 2: values are growth (% of control)
[4] = 3D7, library screen at 2 μg/mL, replicate 1, read-out: Pf_120h_%Growth_Rep1
[5] = 3D7, library screen at 2 μg/mL, replicate 2, read-out: Pf_120h_%Growth_Rep2
[6] = 3D7, library screen at 2 μg/mL, % growth, replicate 1, read-out: Pf_72h_%Growth_Rep1
[7] = 3D7, library screen at 2 μg/mL, % growth, replicate 2, read-out: Pf_72h_%Growth_Rep2
[8] = 72 h, library screen at 2 μg/mL, 72 h, % growth, replicate 1, read-out: Tg_72h_%Growth_Rep1
[9] = 72 h, library screen at 2 μg/mL, 72 h, % growth, replicate 2, read-out: Tg_72h_%Growth_Rep2
[10] = active against the parasite at 2 μg/mL, no anti-tumour (NS-1) or cytotoxic (fibroblast) activity at 5 μg/mL

Compound: CO[C@@H]1[C@@H](OC(N)=O)[C@@H](O)[C@H](Oc2ccc3c(O)c(NC(=O)c4ccc(O)c(CC=C(C)C)c4)c(=O)oc3c2C)OC1(C)C [BIA-N1306]
- Pf_120h_%Growth_Rep1 ([1]; P. falciparum 3D7, 120 h, parasite screen at 2 μg/mL, replicate 1): 15.07%
- Pf_120h_%Growth_Rep2 ([1]; P. falciparum 3D7, 120 h, parasite screen at 2 μg/mL, replicate 2): 13.28%
- Pf_72h_%Growth_Rep1 ([2]; P. falciparum 3D7, 72 h, parasite screen at 2 μg/mL, % growth, replicate 1): 77.54%
- Pf_72h_%Growth_Rep2 ([2]; P. falciparum 3D7, 72 h, parasite screen at 2 μg/mL, % growth, replicate 2): 85.29%
- Tg_72h_%Growth_Rep1 ([3]; T. gondii, 72 h, parasite screen at 2 μg/mL, % growth, replicate 1): 9.17%
- Tg_72h_%Growth_Rep2 ([3]; T. gondii, 72 h, parasite screen at 2 μg/mL, % growth, replicate 2): 93.65%

Compound: C=CC[C@@H]1/C=C(\C)C[C@H](C)C[C@H](OC)[C@H]2O[C@@](O)(C(=O)C(=O)N3CCCC[C@H]3C(=O)O[C@H](/C(C)=C/[C@@H]3CC[C@@H](O)[C@H](OC)C3)[C@H](C)[C@@H](O)CC1=O)[C@H](C)C[C@@H]2OC [Tacrolimus]
- activity at 2 µg/mL ([1]; 3D7, 120 h, P. falciparum, parasite screen 2 μg/mL, replicate 1, read-out: Pf_120h_%Growth_Rep1): 49.7%
- activity at 2 µg/mL ([1]; 3D7, 120 h, P. falciparum, parasite screen 2 μg/mL, replicate 2, read-out: Pf_120h_%Growth_Rep2): 41%
- activity at 2 µg/mL ([2]; 3D7, 72 h, P. falciparum, parasite screen 2 μg/mL, % growth, replicate 1, read-out: Pf_72h_%Growth_Rep1): 56.9%
- activity at 2 µg/mL ([2]; 3D7, 72 h, P. falciparum, parasite screen 2 μg/mL, % growth, replicate 2, read-out: Pf_72h_%Growth_Rep2): 41.7%
- percent parasite growth at 2 µg/mL ([3]; 72 h, T. gondii, 72 h, parasite screen 2 μg/mL, % growth, replicate 1, read-out: Tg_72h_%Growth_Rep1): 102%
- percent parasite growth at 2 µg/mL ([3]; 72 h, T. gondii, 72 h, parasite screen 2 μg/mL, % growth, replicate 2, read-out: Tg_72h_%Growth_Rep2): 79.4%

Compound: COC(=O)c1cc(O)cc(OC)c1Oc1cc(C)cc(O)c1C(=O)O [Asterric Acid]
- activity at 2 µg/mL [1, 4]: 145%
- activity at 2 µg/mL [1, 5]: 103%
- activity at 2 µg/mL [2, 6]: 98.8%
- activity at 2 µg/mL [2, 7]: 86.1%
- percent parasite growth at 2 µg/mL [3, 8]: 79.1%
- percent parasite growth at 2 µg/mL [3, 9]: 94.1%

Compound: CC[C@H](C)[C@H](N)C1=N[C@H](C(=O)N[C@@H](CC(C)C)C(=O)N[C@H](CCC(=O)O)C(=O)N[C@H](C(=O)N[C@H]2CCCCNC(=O)[C@H](CC(N)=O)NC(=O)[C@@H](CC(=O)O)NC(=O)[C@H](Cc3cnc[nH]3)NC(=O)[C@@H](Cc3ccccc3)NC(=O)[C@H]([C@@H](C)CC)NC(=O)[C@@H](CCCN)NC2=O)[C@@H](C)CC)CS1 [Bacitracin A] ({Ileψ(thiazoline)Cys}-L[dE]IK[dOrn]I[dF]H[dD]N; lactam 4-C)
- activity at 2 µg/mL [1, 4]: 59.9%
- activity at 2 µg/mL [1, 5]: 94.6%
- activity at 2 µg/mL [2, 6]: 27.2%
- activity at 2 µg/mL [2, 7]: 89.3%
- percent parasite growth at 2 µg/mL [3, 8]: 81.4%
- percent parasite growth at 2 µg/mL [3, 9]: 89.8%

Compound: CC(=O)O[C@@H]1[C@@H]2O[C@H]2[C@@](C)(O)C(=O)[C@@H](C)C/C=C/[C@H]2[C@H](O)C(C)=C(C)[C@H]3[C@H](Cc4ccccc4)NC(=O)[C@@]123 [19,20-epoxycytochalasin C]
- selectivity for P. falciparum in the screens [2, 10]: active selectively against P. falciparum and T. gondii
- selectivity for T. gondii in the screens [3, 10]: active selectively against P. falciparum and T. gondii

Compound: CN1CC[C@]2(c3cccc4c3N[C@H]3N(C)CC[C@@]43[C@]34CCN(C)[C@H]3Nc3ccccc34)c3ccccc3N[C@H]12 [Hodgkinsine B]
- Mean ([3]; T. gondii, 72 h): 34.28
- Replicate 1 ([3]; T. gondii, 72 h): 8.86
- Replicate 2 ([3]; T. gondii, 72 h): 59.70

Compound: C=C[C@]1(C)C[C@@H](O)[C@]2(C)[C@H](C)CC[C@]3(CCC(=O)[C@H]32)[C@@H](C)[C@@H]1O [Mutilin]
- Screen (P. falciparum) ([2]; library screen at 2 μg/mL, 3D7, 72 h, DD from the 120 h timepoint): I, I
- Screen (T. gondii) ([3]; library screen at 2 μg/mL, RH strain, 72 h): I, I

Compound: CC(C)=CCC[C@H](C)[C@H]1CC[C@]2(C)C[C@H]3[C@H](C(=O)C[C@@]3(C)O)/C(C=O)=C\C[C@@H]12 [Ophiobolin C]
- Mean ([3]; T. gondii, 72 h): 48.72
- Replicate 1 ([3]; T. gondii, 72 h): 7.63
- Replicate 2 ([3]; T. gondii, 72 h): 89.80
